Assay: Exposed Polar Surface Area (EPSA)
Format: physicochemical
Conditions: SFC on Chirex 3014 column; sample 1 mM DMSO stock; read-out: EPSA
Excerpt: Exposed Polar Surface Area (EPSA) is an experimental descriptor of molecular polarity obtained from chromatographic retention in supercritical fluid chromatography (SFC).
The stationary phase (Chirex 3014(S)-valine and (R)-1-(alpha-naphthyl) ethylamine) was selected for its balance of lipophilic and polar attributes and its capacity to separate compounds with wide polarity differences. The mobile phase consists of methanol (+Ammonium formate) and CO2. Polar compounds are retained stronger under these conditions and a low-slope gradient of methanol achieves elution based on increasing polarity of the mobile phase. Results are normalized using calibration standards generating a linear relationship between retention times and EPSA values. The unit of EPSA is Å^2.
Along with the measurement of compounds of interest, a series of 8 calibration standards (see Materials) are analyzed generating a linear relationship between retention times and EPSA value. The 8 compounds used as calibration standard have their own EPSA value defined by G. Goetz based on the comparison with TPSA (see G. Goetz, L. Philippe and M. Shapiro, “EPSA: A novel supercritical fluid chromatography technique enabling the design of permeable cyclic peptides,” ACS Med. Chem. Lett., vol. 5, pp. 1167-1172, 2014 for more information). The slope from the linear relationship between EPSA values of these eight compounds and their retention times is used to determine the EPSA value of each compound of interest that's measured under the same condition using the equation as below: […]
The mixture of calibrations standard is reinjected every 20 compounds to validate the stability of the retention time.
The mobile phase modifier consists of ammonium formate LC_MS grade (>99%) (CAS number 540-69-2) diluted to 20 mM in HPLC grade Methanol (MeOH, CAS number 67-56-1) and liquid C02 SFC grade (CAS number 124-38-9).
Antipyrine (CAS number: 60-80-0) Chlorpromazine hydrochloride (CAS number: 69-09-0), desipramine hydrochloride (CAS number: […]), pindolol (CAS Number: 13523-86-9), diclofenac (CAS number: 15307-79-6)), m-nitro benzoic acid (CAS number: 121-92-6), bumetanide (CAS number: 28395-03-1), furosemide (CAS number: 54-31-9) were purchased from Sigma Aldrich (Steihneim, Germany).
All analyses were performed on a ultra performance convergence chromatography (UPC™) apparatus (Waters, Milford, MA, USA) equipped with a sample manager, a binary solvent delivery pump (BSM), a column manager, a convergence manager (automated back pressure regulator), a photo diode array detector (DAD) with a high pressure flow cell, and a mass detector simple quadrupole QDa. After the UV detector, the effluent of the SFC was mixed with an eluent consist of mixture MeOH/water (+0.3% Ammonia) 95/5 delivered by a make up pump with a flow rate of 0.4 mL/min and then split to the QDa using a splitter. The instrument was controlled, and data were processed with Masslynx 4.1.
The Analyses were performed using a 4.6×50 mm Chirex 3014(S)-valine and (R)-1-(alpha- naphthyl) ethylamine column (Phenomenex, Le Pecq, France) with 5 um particle and 100A pore size. The flow rate was 4 mL/min with the outlet pressure set to 14 MPa. The injection volume was 2 μL. the mobile phase composition was varied from 5% to 60% modifier at 20%/ min in a linear gradient, holding at 60% for 1.45 min and reverting to the original 5% until the end of the run. Data are acquired during 5 min. An equilibration time of 1 min is applied between 2 injections resulting in an injection every 6 min. each sample is analyzed in duplicate, resulting in a sample to sample turnaround time of 12 min.
The column temperature was set to 35° C. The mass detector was used in full scan from 100 to 800 for small molecules and from 500 to 1200 for peptides.
Each sample is delivered by compound logistics from DMSO stock solution without dilution. The concentration is 1 mM and the volume is 60 μL.

Structure (SMILES)	EPSA [A^2]
CCCCCCCCCCCC(=O)N[C@@H](CCC(=O)NCCOCCOCC(=O)NCCOCCOCC(=O)NC(COCCOCC[N+](C)(C)C)C(=O)N[C@@H]1C(=O)N[C@@H](CC(=O)N(C)C)C(=O)N[C@@H]([C@@H](C)O)C(=O)N[C@@H](Cc2c[nH]c3c(C)cccc23)C(=O)N[C@@H](CCCCN(C)C(C)=O)C(=O)N[C@H](C(=O)N[C@@H](Cc2ccc(OCCOCCOCC[N+](C)(C)C)cc2)C(=O)N[C@@H](Cc2ccc3ccccc3c2)C(=O)NC2(C(=O)N[C@@H](CCCCN(C)C(C)=O)C(=O)N[C@@H](CC(N)=O)C(=O)N[C@@H](Cc3cccnc3)C(=O)N(C)CC(=O)N(C)C)CCOCC2)C(C)(C)SSC1(C)C)C(=O)O (relative stereo) [compound 366, C12gEPEG2PEG2CO-APEG2Ser(S*)-Pen(3)-N(N(Me)2)-T-7MeW-K(NMeAc)-Pen(3)-APEG3F-2Nal-THP-K(NMeAc)-N-3Pya-Sar-CON(Me)2]	162
CCCCCCCCCCCCCC(=O)N[C@@H](CCC(=O)NCCOCCOCC(=O)NCCOCCOCC(=O)N[C@@H](COCCOCC[N+](C)(C)C)C(=O)N[C@@H]1C(=O)N[C@@H](CC(=O)N(C)C)C(=O)N[C@@H]([C@@H](C)O)C(=O)N[C@@H](Cc2c[nH]c3c(C)cccc23)C(=O)N[C@@H](CCCCN(C)C(C)=O)C(=O)N[C@H](C(=O)N[C@@H](Cc2ccc(OCCOCCOCC[N+](C)(C)C)cc2)C(=O)N[C@@H](Cc2ccc3ccccc3c2)C(=O)NC2(C(=O)N[C@@H](CCCCN(C)C(C)=O)C(=O)N[C@@H](CC(N)=O)C(=O)N[C@@H](Cc3cccnc3)C(=O)N(C)CC(=O)N(C)C)CCOCC2)C(C)(C)SSC1(C)C)C(=O)O (relative stereo) [compound 367, C14gEPEG2PEG2CO-APEG2Ser(S*)-Pen(3)-N(N(Me)2)-T-7MeW-K(NMeAc)-Pen(3)-APEG3F-2Nal-THP-K(NMeAc)-N-3Pya-Sar-CON(Me)2]	162
CCCCCCCCCCCC(=O)N[C@@H](CCC(=O)NCCOCCOCC(=O)NCCOCCOCC(=O)NCCCC[C@@H]1NC(=O)[C@H](Cc2c[nH]c3c(C)cccc23)NC(=O)[C@H]([C@@H](C)O)NC(=O)[C@H](CC(=O)N(C)C)NC(=O)[C@@H](NC(=O)C(COCCOCC[N+](C)(C)C)NC(=O)COCCOCCNC(=O)COCCOCCNC(=O)CC[C@H](NC(=O)CCCCCCCCCCC)C(=O)O)C(C)(C)SSC(C)(C)[C@@H](C(=O)N[C@@H](Cc2ccc(OCCOCCOCC[N+](C)(C)C)cc2)C(=O)N[C@@H](Cc2ccc3ccccc3c2)C(=O)NC2(C(=O)N[C@@H](CCCCN(C)C(C)=O)C(=O)N[C@@H](CC(N)=O)C(=O)N[C@@H](Cc3cccnc3)C(=O)N(C)CC(=O)N(C)C)CCOCC2)NC1=O)C(=O)O (relative stereo) [compound 368, C12gEPEG2PEG2CO-APEG2Ser(S*)-Pen(3)-N(N(Me)2)-T-7MeW-K(PEG2PEG2gEC12)-Pen(3)-APEG3F-2Nal-THP-K(NMeAc)-N-3Pya-Sar-CON(Me)2]	166
CCCCCCCCCCCCCC(=O)N[C@@H](CCC(=O)NCCOCCOCC(=O)NCCOCCOCC(=O)NCCCC[C@@H]1NC(=O)[C@H](Cc2c[nH]c3c(C)cccc23)NC(=O)[C@H]([C@@H](C)O)NC(=O)[C@H](CC(=O)N(C)C)NC(=O)[C@@H](NC(=O)[C@H](COCCOCC[N+](C)(C)C)NC(=O)COCCOCCNC(=O)COCCOCCNC(=O)CC[C@H](NC(=O)CCCCCCCCCCCCC)C(=O)O)C(C)(C)SSC(C)(C)[C@@H](C(=O)N[C@@H](Cc2ccc(OCCOCCOCC[N+](C)(C)C)cc2)C(=O)N[C@@H](Cc2ccc3ccccc3c2)C(=O)NC2(C(=O)N[C@@H](CCCCN(C)C(C)=O)C(=O)N[C@@H](CC(N)=O)C(=O)N[C@@H](Cc3cccnc3)C(=O)N(C)CC(=O)N(C)C)CCOCC2)NC1=O)C(=O)O (relative stereo) [compound 369, C14gEPEG2PEG2CO-APEG2Ser(S*)-Pen(3)-N(N(Me)2)-T-7MeW-K(PEG2PEG2gEC14)-Pen(3)-APEG3F-2Nal-THP-K(NMeAc)-N-3Pya-Sar-CON(Me)2]	184

Results, then the compound that gave them:

EPSA [A^2]	Structure (SMILES)
170	CC(=O)NCCCC[C@@H]1NC(=O)[C@H](Cc2c[nH]c3c(C)cccc23)NC(=O)[C@H]([C@@H](C)O)NC(=O)[C@H](CC(N)=O)NC(=O)[C@@H](NC(C)=O)C(C)(C)SSC(C)(C)[C@@H](C(=O)N[C@@H](Cc2ccc(OCCN)cc2)C(=O)N[C@@H](Cc2ccc3ccccc3c2)C(=O)N[C@@](C)(CCCCN)C(=O)N[C@H](CCCCNC(C)=O)C(=O)N[C@@H](CC(N)=O)C(=O)N[C@H](CC(C)C)C(=O)N(C)[C@H](Cc2ccc(O)cc2)C(N)=O)NC1=O (racemic) [compound 6, MeCO-Pen(3)-N-T-7MeW-K(Ac)-Pen(3)-AEF-2Nal-aMeK-k(Ac)-N-dL-NMeDTyr-CONH2]
171	CC(=O)NCCCC[C@@H]1NC(=O)[C@H](Cc2c[nH]c3c(C)cccc23)NC(=O)[C@H]([C@@H](C)O)NC(=O)[C@H](CC(N)=O)NC(=O)[C@@H](NC(=O)C(COCCOCC[N+](C)(C)C)NC(C)=O)C(C)(C)SSC(C)(C)[C@@H](C(=O)N[C@@H](Cc2ccc(OCCCCC[N+](C)(C)C)cc2)C(=O)N[C@@H](Cc2ccc3ccccc3c2)C(=O)NC2(C(=O)N[C@@H](CCC(=O)O)C(=O)N[C@@H](CC(N)=O)C(=O)N[C@@H](Cc3cccnc3)C(=O)N(C)CC(N)=O)CCOCC2)NC1=O (mixture of isomers) [compound 555, MeCO-APEG2Ser(RS)-Pen(3)-N-T-7MeW-K(Ac)-Pen(3)-TMAPF-2Nal-THP-E-N-3Pya-Sar-CONH2]
145	CC(=O)N(C)CCCC[C@H](NC(=O)C1(NC(=O)[C@H](Cc2ccc3ccccc3c2)NC(=O)[C@H](Cc2ccc(OCCCCC[N+](C)(C)C)cc2)NC(=O)[C@H]2NC(=O)[C@H](COCCOCC[N+](C)(C)C)NC(=O)[C@H](Cc3c[nH]c4c(C)cccc34)NC(=O)[C@H]([C@@H](C)O)NC(=O)[C@H](CC(=O)N(C)C)NC(=O)[C@@H](NC(=O)CCOCCOCC[N+](C)(C)C)C(C)(C)SSC2(C)C)CCOCC1)C(=O)N[C@@H](CC(N)=O)C(=O)N[C@@H](Cc1cccnc1)C(=O)N(C)CC(=O)N(C)C (relative stereo) [compound 247, cPEG3aCO-Pen(3)-N(N(Me)2)-T-7MeW-APEG2Ser(S*)-Pen(3)-TMAPF-2Nal-THP-K(NMeAc)-N-3Pya-Sar-CON(Me)2]
142	CC(=O)N[C@@H]1C(=O)N[C@@H](CC(=O)N(C)C)C(=O)N[C@@H]([C@@H](C)O)C(=O)N[C@@H](Cc2c[nH]c3c(C)cccc23)C(=O)N[C@@H](COCCOCC[N+](C)(C)C)C(=O)N[C@H](C(=O)N[C@@H](Cc2ccc(OCCOCCOCC[N+](C)(C)C)cc2)C(=O)N[C@@H](Cc2ccc3ccccc3c2)C(=O)NC2(C(=O)N[C@@H](COCCOCC[N+](C)(C)C)C(=O)N[C@@H](CC(N)=O)C(=O)N[C@@H](Cc3cccnc3)C(=O)N(C)CC(=O)N(C)C)CCOCC2)C(C)(C)SSC1(C)C (relative stereo) [compound 256, MeCO-Pen(3)-N(N(Me)2)-T-7MeW-APEG2Ser(S*)-Pen(3)-APEG3F-2Nal-THP-APEG2Ser(S*)-N-3Pya-Sar-CON(Me)2]
157	CC(=O)N(C)CCCC[C@@H]1NC(=O)[C@H](Cc2c[nH]c3c(C)cccc23)NC(=O)[C@H]([C@@H](C)O)NC(=O)[C@H](CC(=O)N(C)C)NC(=O)[C@@H](NC(=O)CCOCCOCC[N+](C)(C)C)C(C)(C)SSC(C)(C)[C@@H](C(=O)N[C@@H](Cc2ccc(OCCN(CCOCC[N+](C)(C)C)CCOCC[N+](C)(C)C)cc2)C(=O)N[C@@H](Cc2ccc3ccccc3c2)C(=O)NC2(C(=O)N[C@@H](CCCCN(C)C(C)=O)C(=O)N[C@@H](CC(N)=O)C(=O)N[C@@H](Cc3cccnc3)C(=O)N(C)CC(=O)N(C)C)CCOCC2)NC1=O (relative stereo) [compound 266, cPEG3aCO-Pen(3)-N(N(Me)2)-T-7MeW-K(NMeAc)-Pen(3)-AEF(BisPEG2a)(S*)-2Nal-THP-K(NMeAc)-N-3Pya-Sar-CON(Me)2]

From US20260022143A1, “Cyclic Peptide Inhibitors of IL-23” (JANSSEN PHARMACEUTICA NV, priority 2022, published 2026)
